Legend:
[1] = molecular target: Human CYP2C19 (Homo sapiens (Human), UniProt P33261); assay: Inhibitory action on human CYP2C19; assay type: in vitro ADME
Protocol: (§1) Measurement of the Inhibitory Activity on Drug-Metabolizing Enzymes (Inhibitory Action on Human CYP2C8 and Human CYP2C19)
The reaction was carried out in a 96-well plate. The positive control substances (CYP2C8: ketoconazole, CYP2C19: tranylcypromine) were adjusted (CYP2C8: 0.6 and 6 mmol/L, CYP2C19: 0.9 and 9 mmol/L) with DMSO to concentrations that were 300 times the final concentration, and solutions were prepared (CYP2C8: 8 and 80 μmol/L, CYP2C19: 12 and 120 μmol/L) by 75× dilution with purified water that contained 2.7% acetonitrile. The test compounds were adjusted to […] with DMSO and were adjusted to 4 and 40 μmol/L by 75× dilution with purified water that contained 2.7% acetonitrile. A reaction mixture was then prepared (the numerical values are final concentrations) by the addition of potassium phosphate buffer (pH 7.4), magnesium chloride ([…]), substrate (CYP2C8: dibenzylfluorescein 1 μmol/L, CYP2C19: 3-cyano-7-ethoxycoumarin 25 μmol/L), and E. coli-expressed liver microsome CYP2C8 (Cypex, 10 pmol/L) and CYP2C19 (Cypex, 3 pmol/L). 100 μL of this reaction mixture and 50 μL of the test compound prepared as described above and the positive control solution prepared as described above were dispensed into each well and pre-incubation was carried out at 10 minutes for 37° C. The reaction was started by the addition of 50 μL NADPH solution (final concentration=1 mmol/L) and incubation was carried out for 30 minutes at 37° C. The fluorescence intensity was measured (CYP2C8: excitation wavelength=485 nm, fluorescence wavelength=538 nm; CYP2C19: excitation wavelength=409 nm, fluorescence wavelength=460 nm) immediately after the addition of the NADPH and after incubation for 30 minutes.

[2] = system: Human liver cells; assay: Cytotoxicity in cultured human hepatoma cells (ATP concentration, Celltiter Glo); assay type: cell-based; settings: 50% decline in ATP concentration, exposure for 24 hours, read-out: Toxicity for human liver cells (IC50 (μM))
Protocol: Measurement of the Cytotoxicity and Ability to Reduce the Mitochondrial Membrane Potential in Cultured Human Hepatoma Cells
Human liver cells were seeded into a collagen-coated 96-well plate at a cell density of 30,000 cells/well and incubation was carried out overnight in an incubator at 37° C. in 5% CO2-95% air. The cultured cells were stained for 1 hour with 5,5′,6,6′-tetrahydro-1,1′,3,3′-tetramethyl-benzamidazolocarbocyanine iodide (JC-1) followed by treatment with the test compound. The test compound was dissolved in DMSO and then diluted with the liquid culture medium Hepatocyte Culture Medium (HCM) and added to the cells. The test compound treatment concentrations were 0, 6.25, 12.5, 25, 50, 100, 200, and 400 μmol/L. After exposure to the test compound for 24 hours, measurement was performed with a SpectraMax plate reader (Molecular Devices, LLC) at an excitation wavelength of 485 nm and a fluorescence wavelength of 538 nm and an excitation wavelength of 544 nm and a fluorescence wavelength of 590 nm. The membrane potential was determined by the ratio between the 544 nm/590 nm measurement value and the 485 nm/538 nm measurement value. After this, the ATP concentration in the cells was measured using a Celltiter Glo luminescent assay kit (Promega Corporation) in order to evaluate the cell toxicity of the test compound. The cells were lysed by the assay buffer provided with the measurement kit and the concentration of the ATP released from the cells was measured using the luciferin-luciferase enzyme activity as the index. The emission was measured using a SpectraMax plate reader. […] The ability to lower the mitochondrial membrane potential of the test compounds and the cytotoxicity of the test compounds are given in Table 3 below.

[3] = Stability in the human liver microsome; settings: 0.5 mg/mL microsomes, NADPH, 15 minutes at 37° C.
Protocol: (§2) Evaluation of the Stability in the Rat and Human Liver Microsome
(§3) A 0.25 mmol/L solution was prepared by diluting the test compound (10 mmol/L DMSO solution, 5 μL) with an aqueous 50% acetonitrile solution (195 μL).
(§4) 20 μL was collected immediately after the start and the reaction was stopped by the addition to 180 μL of acetonitrile that contained an internal standard (warfarin). 20 μL of this solution was stirred with 180 μL of an aqueous 50% acetonitrile solution on a filter plate for protein depletion followed by suction filtration, and the filtrate was used as the standard sample.
(§5) The previously indicated reaction solution was incubated for 15 minutes at 37° C., and 20 μL was then added to 180 μL cold acetonitrile (contained the internal standard warfarin) to stop the reaction. 20 μL of this was stirred with 180 μL of an aqueous 50% acetonitrile solution on a filter plate for protein depletion followed by suction filtration, and the filtrate was used as the standard sample.

[4] = molecular target: Human CYP2C8 (Homo sapiens (Human), UniProt P10632); assay: Inhibitory action on human CYP2C8; assay type: in vitro ADME
Protocol: as §1
The reaction was carried out in a 96-well plate. […] 100 μL of this reaction mixture and 50 μL of the test compound prepared as described above and the positive control solution prepared as described above were dispensed into each well and pre-incubation was carried out at 10 minutes for 37° C. The reaction was started by the addition of 50 μL NADPH solution (final concentration=1 mmol/L) and incubation was carried out for 30 minutes at 37° C.

[5] = Stability in the rat liver microsome; settings: 0.5 mg/mL microsomes, NADPH, 15 minutes at 37° C.
Protocol: as §2, §3, §4, §5

[6] = molecular target: Lck (Homo sapiens (Human), UniProt P06239); assay: Lck inhibitory activity, selectivity for Btk (Z'-LYTE kinase assay); assay type: biochemical; settings: ratio of the IC50 values of the individual kinases
Protocol: The inhibitory activity for other kinases (for example, Lck, Fyn, and LynA (all from Invitrogen Corporation) was measured in the same manner as described above using the particular kinase in place of the Btk.

Chain of Human CYP2C8 (P10632 whole entry): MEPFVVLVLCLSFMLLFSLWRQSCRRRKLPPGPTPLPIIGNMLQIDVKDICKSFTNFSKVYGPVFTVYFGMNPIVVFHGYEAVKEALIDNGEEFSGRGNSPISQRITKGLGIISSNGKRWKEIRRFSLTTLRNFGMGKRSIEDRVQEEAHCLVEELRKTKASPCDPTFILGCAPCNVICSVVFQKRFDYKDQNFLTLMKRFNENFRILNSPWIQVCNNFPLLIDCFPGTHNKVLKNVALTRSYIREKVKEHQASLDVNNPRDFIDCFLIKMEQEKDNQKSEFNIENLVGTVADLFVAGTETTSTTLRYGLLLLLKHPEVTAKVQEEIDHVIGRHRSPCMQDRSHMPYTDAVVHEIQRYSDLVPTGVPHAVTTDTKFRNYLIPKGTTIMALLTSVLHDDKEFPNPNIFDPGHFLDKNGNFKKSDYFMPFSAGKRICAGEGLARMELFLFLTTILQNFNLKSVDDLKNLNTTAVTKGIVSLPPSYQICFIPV
Chain of Human CYP2C19 (P33261 whole entry): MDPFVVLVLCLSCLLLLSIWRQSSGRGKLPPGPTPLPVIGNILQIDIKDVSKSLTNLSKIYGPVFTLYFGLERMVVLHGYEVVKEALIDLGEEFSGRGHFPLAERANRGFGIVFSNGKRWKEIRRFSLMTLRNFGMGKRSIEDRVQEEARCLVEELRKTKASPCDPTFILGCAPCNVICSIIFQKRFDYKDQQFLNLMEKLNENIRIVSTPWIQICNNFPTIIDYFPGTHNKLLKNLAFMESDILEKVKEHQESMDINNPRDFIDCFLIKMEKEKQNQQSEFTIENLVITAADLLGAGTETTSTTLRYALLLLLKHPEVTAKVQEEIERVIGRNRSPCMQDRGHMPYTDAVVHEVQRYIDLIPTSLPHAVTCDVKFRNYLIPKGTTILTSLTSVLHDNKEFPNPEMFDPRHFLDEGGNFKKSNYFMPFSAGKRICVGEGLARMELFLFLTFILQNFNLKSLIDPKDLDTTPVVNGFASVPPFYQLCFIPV
Chain of Lck (P06239 whole entry): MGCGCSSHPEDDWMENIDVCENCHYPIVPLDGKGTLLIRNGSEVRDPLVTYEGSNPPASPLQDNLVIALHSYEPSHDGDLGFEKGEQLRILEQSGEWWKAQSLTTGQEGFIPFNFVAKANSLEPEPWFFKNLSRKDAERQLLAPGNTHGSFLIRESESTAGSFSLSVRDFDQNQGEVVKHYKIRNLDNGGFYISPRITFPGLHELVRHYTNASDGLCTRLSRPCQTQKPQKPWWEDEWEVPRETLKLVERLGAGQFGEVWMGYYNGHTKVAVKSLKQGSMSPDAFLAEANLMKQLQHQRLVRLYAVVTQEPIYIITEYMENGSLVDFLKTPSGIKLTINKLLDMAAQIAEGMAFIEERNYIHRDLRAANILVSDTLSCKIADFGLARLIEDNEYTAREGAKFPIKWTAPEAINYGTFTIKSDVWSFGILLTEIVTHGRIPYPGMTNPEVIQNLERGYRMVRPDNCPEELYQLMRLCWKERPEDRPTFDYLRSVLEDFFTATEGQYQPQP

IC50 [1]: > 10 µM | Residual ratio (%) in the human liver microsome [3]: 87.0% | IC50 [4]: > 10 µM | Residual ratio (%) in the rat liver microsome [5]: 100% | Lck[IC50]/Btk[IC50] [6]: 80
Structure (SMILES): C=CC(=O)N1CC(n2c(=O)n(-c3ccc(Oc4ccccc4)cc3)c3c(N)ncnc32)C1 [Example 8, 9-(1-acryloyl-3-azetidinyl)-6-amino-7-(4-phenoxyphenyl)-7,9-dihydro-8H-purin-8-one]
IC50 [2]: 290 µM

Reference: patent publication US9879013B2, “Purinone derivative” (ONO PHARMACEUTICAL CO., LTD., priority 2010, dated 2018)
